In patent US20260174780A1, “BISMUTH-THIOL COMPOSITIONS AND METHODS FOR TREATING INFLAMMATORY DISEASES” (Microbion Corporation, priority 2022, published 2026):

Columns and labels:
Hypo-InflammaSkin models = experiment: Ex vivo human skin model of psoriasis (Hypo-InflammaSkin), cytokine release in culture medium; format: cell-based; details: for secretion of IL-22: Day 7 (FIG. 13R); for secretion of MIP-3α: Day 7 (FIG. 13S)
From the text: Background: InflammaSkin® model is a validated psoriasis-like model developed to reproduce key features of pro-Th17/Th1 inflammation associated with psoriasis. It relies on the in situ activation of resident T-cell of normal skin biopsies and their further polarization into Th17/Th1 phenotype with the supplementation of culture medium with a cocktail of pro-inflammatory cytokines.
Model production and culture: 2 HypoSkin models of 15 mm in diameter (1.76 cm^2) were produced from 1 donor and cultured with 2 mL standard HypoSkin® medium. 20 Hypo-InflammaSkin models were produced from 1 donor by inducing in sit activation and Th17/Th1 polarization of skin resident T cells with proprietary cocktail and cultured with 2 mL Hypo-InflammaSkin® culture medium. The total treatable surface area of the models was 113 mm^2, and dosing of BisEDT took this into account based on dosing of the topical treatment. Models were maintained in standard cell culture conditions for the whole culture duration at 37° C., 5% CO2 and water saturation, with appropriate culture medium renewed every day.
Treatment Groups: Model Treatment: (1) HypoSkin® untreated control; (2) Hypo-InflammaSkin® untreated control; (3) topical betamethasone (positive control); (4) topical BisEDT—2.5 mg/mL (treatment applied every day from day 0 to 6; (5) topical BisEDT—1.25 mg/mL (treatment applied every day from day 3 to 6). N=3 per treatment group, except N=5 for Hypo-InflammaSkin® and N=1 for HypoSkin®.
Topical Treatment—Betamethasone (control): 25 μL of betamethasone was topically applied onto the surface of each skin model. Topical application was performed from Day 0 to Day 6 after removal of the previous treatment residues using a cotton swab.
Topical Treatment—BisEDT: 36 μL of the test compound was topically applied onto the surface of each skin model, massaging across the entire surface area for 1 minute, using a parafilm wrapped cotton swab; the compound was left on the skin. Topical application was performed from Day 0 to Day 6 (Treatment Group 4) or Day 3 to Day 6 (Treatment Group 5). A total of 9 models were topically treated.
Culture Media—culture media was collected on Day 3 prior to treatment application and on Day 7 and frozen at −80° C. A total of 42 culture media samples were collected.
IL-22 release: IL-22 release was measured in culture media using ELISA Human IL-22 Quantikine Kit (Bio-techne, ref D2200). Only samples from control conditions 1 to 3 were analyzed to assess donor's response to T cell activation. Each sample was analyzed in duplicate.
MSD Immunoassay—cytokine release (IL-2, IL-13, IL-15, IL-17A, IL-22, TNF-α, INF-γ, MIP-1β, and […]) in the culture medium was measured using the V-PLEX Plus Human Cytokine Kit (KI5089G, MesoScale Discovery) (FIGS. 13D-13S).

[1] = Particle size by Nanosizer/Zetasizer Nano-S (volumetric mean diameter); format: physicochemical; details: resuspended in 2% Pluronic F-68, sonicated; two measurements
Description: The dried particulate matter was characterized to assess the particle size properties. Briefly, particles were resuspended in 2% Pluronic® F-68 (BASF, Mt. Olive, NJ) and the suspension was sonicated for 10 minutes in a water bath sonicator at standard setting prior to analysis using a Nanosizer/Zetasizer Nano-S particle analyzer (model ZEN1600 (without zeta-potential measuring capacity), Malvern Instruments, Worcestershire, UK) according to the manufacturer's recommendations.

[2] = tested on: cytokines in bronchoalveolar lavage fluid (BALF); experiment: Cytokines in BALF of rats after a single inhaled dose of BisEDT; format: in vivo, Sprague-Dawley rats; details: day 8 compared to day 2; single low (1 mg/kg) or high (7 mg/kg) inhaled dose
Description: Two concentrations (low: 1 mg/kg; high: 7 mg/kg) of BisEDT were evaluated by inhalation in rats.
Bronchoalveolar lavage fluid (BALF) samples from day 2 (D2) and day 8 (D8) post treatment were analyzed for the expression of cytokines.
Protocol: Sprague-Dawley rats were randomly assigned to a study group based on body weight. Adult, male Sprague-Dawley rats (n=6 per group) were exposed to the aerosolized test article (TA) with a single dose on Study Day 1. Groups 1, 2, and 3 were exposed by inhalation to 1 mg/kg (targeted presented dose) of BisEDT sample 1, BisEDT sample 2, or BisEDT sample 3, respectively. Groups 4, 5, and 6 were exposed by inhalation to 7 mg/kg (targeted presented dose) of BisEDT sample 1, BisEDT sample 2, or BisEDT sample 3, respectively. Animals were necropsied on Study Days 2, 4, and 8, and terminal blood collections were conducted at that time.
Blood Processing: All blood samples were placed into a tube containing K3EDTA, and mixed thoroughly. Following mixing, blood obtained at the time of euthanasia was divided in half. Half of the blood sample was stored frozen without further processing pending bioanalysis. The remaining half was placed on wet ice before being processed to plasma by centrifugation at 2500×g for ≥10 minutes at 2 to 8° C. Plasma was aliquoted into a cryovial(s), snap frozen in liquid nitrogen, and stored at −80° C.±10° C. until cytokine analysis was performed using ELISA kits following manufacturer's instructions.

[3] = Day 3, compared to HypoInflammaSkin
[4] = Day 7, compared to untreated HypoInflammaSkin controls

C1C[S][Bi]([S]CC[S][Bi]2[S]CC[S]2)[S]1 [BisEDT, 1,2-(Bis(1,3-dithia-2-bismolane)thio)ethane]
MIP-1β levels vs betamethasone (Hypo-InflammaSkin models): lower than the steroid betamethasone | reducing/preventing inflammation induced in the HypoInflammaSkin models, vs betamethasone (Hypo-InflammaSkin models): more effective than betamethasone | secretion of IL-13 (Hypo-InflammaSkin models; [3]): reduced secretion | secretion of IL-15 (Hypo-InflammaSkin models; [3]): reduced secretion | secretion of IL-17A (Hypo-InflammaSkin models; [3]): reduced secretion | secretion of INF-γ (Hypo-InflammaSkin models; [3]): reduced secretion | secretion of MIP-110 (Hypo-InflammaSkin models; [3]): reduced secretion | secretion of TNF-α (Hypo-InflammaSkin models; [3]): reduced secretion | IL-17A secretion (Hypo-InflammaSkin models; Day 3 and Day 7 (FIGS. 13D, 13E), compared to untreated HypoInflammaSkin): notable reduction | TNF-α (Hypo-InflammaSkin models; Day 3 and Day 7 (FIGS. 13F, 13G), compared to untreated HypoInflammaSkin control): reduction | IFNγ secretion (Hypo-InflammaSkin models; Day 3 and Day 7 (FIGS. 13H, 13I), compared to untreated HypoInflammaSkin control): reduced | secretion of MIP-1β (Hypo-InflammaSkin models; Day 3 and Day 7 (FIGS. 13L, 13M), compared to untreated HypoInflammaSkin): statistically significant decrease | MIP-1β level (Hypo-InflammaSkin models; Day 7): two out of three replicates below LOQ | secretion of IL-22 (Hypo-InflammaSkin models; compared to untreated HypoInflammaSkin control, listed as Pravibismane): reduced secretion | secretion of IL-22 (Hypo-InflammaSkin models; compared to untreated HypoInflammaSkin control, listed as pravibismane): continued to decrease | secretion of MIP-3α (Hypo-InflammaSkin models; compared to untreated HypoInflammaSkin, listed as Pravibismane): statistically significant decrease | secretion of MIP-3α (Hypo-InflammaSkin models; compared to untreated HypoInflammaSkin, listed as pravibismane): continued to decrease | secretion of IFN-γ (Hypo-InflammaSkin models; [4]): continued to decrease | secretion of IL-13 (Hypo-InflammaSkin models; [4]): continued to decrease | secretion of IL-15 (Hypo-InflammaSkin models; [4]): continued to decrease | secretion of IL-17A (Hypo-InflammaSkin models; [4]): continued to decrease | secretion of MIP-1β (Hypo-InflammaSkin models; [4]): continued to decrease | secretion of TNF-α (Hypo-InflammaSkin models; [4]): continued to decrease | IL-15 secretion (Hypo-InflammaSkin models; pravibismane (day 3), compared to untreated HypoInflammaSkin): statistically significant reduction | IL-15 secretion vs HypoSkin untreated (Hypo-InflammaSkin models; pravibismane treatment (day 3)): even lower than healthy uninflamed skin | IL-17A levels vs positive control (betamethasone) (Hypo-InflammaSkin models; topical, started at day 0 or day 3): even lower than positive control | IL-13 secretion (Hypo-InflammaSkin models; treatment from day 0 (FIGS. 13N, 13O), compared to HypoInflammaSkin control): reduced | IFN-γ levels vs positive control (betamethasone) (Hypo-InflammaSkin models; treatment starting at Day 0): even lower than positive control | TNF-α levels vs positive control (betamethasone) (Hypo-InflammaSkin models; treatment starting at Day 0): even lower than positive control | peak VMD [1]: about 1.3 microns | expression of IL-1β in BALF [2]: Consistent reduction | expression of IL-17A in BALF [2]: Consistent reduction | expression of TNF-α in BALF [2]: Consistent reduction
